≈ marks a conversion by molar mass, not a printed value.
How the values were obtained:
HIV-1 IIIB strain = assay: MT-4 HIV Wild Type Virus Infection Assay (IIIB Virus); format: cell-based; details: Human immunodeficiency virus 1, IIIB, MT4, 120 h, MT-4 cells acutely infected with HIV-1 IIIB, 5 day incubation, Cell-titer glo
Method in brief: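 MT-4 cells at 2×10^6 cells/ml in RPMI/10% FBS were acutely infected with HIV-1 IIIB for 1 h at 37° C, diluted 25× and added to serially diluted compounds. After 5 days at 37° C, viability read by CellTiter-Glo luminescence; EC50 from dose-response curves.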

[1] = molecular target: bovine intestinal alkaline phosphatase (Bos taurus (Bovine), UniProt P19111); assay: BiALP: conversion by bovine intestinal alkaline phosphatase; format: in vitro ADME; details: 2 μM substrate, 100 ng/mL iALP, Tris pH 7.8, 37° C., 60 minutes
bovine intestinal alkaline phosphatase, sequence (P19111 20-506): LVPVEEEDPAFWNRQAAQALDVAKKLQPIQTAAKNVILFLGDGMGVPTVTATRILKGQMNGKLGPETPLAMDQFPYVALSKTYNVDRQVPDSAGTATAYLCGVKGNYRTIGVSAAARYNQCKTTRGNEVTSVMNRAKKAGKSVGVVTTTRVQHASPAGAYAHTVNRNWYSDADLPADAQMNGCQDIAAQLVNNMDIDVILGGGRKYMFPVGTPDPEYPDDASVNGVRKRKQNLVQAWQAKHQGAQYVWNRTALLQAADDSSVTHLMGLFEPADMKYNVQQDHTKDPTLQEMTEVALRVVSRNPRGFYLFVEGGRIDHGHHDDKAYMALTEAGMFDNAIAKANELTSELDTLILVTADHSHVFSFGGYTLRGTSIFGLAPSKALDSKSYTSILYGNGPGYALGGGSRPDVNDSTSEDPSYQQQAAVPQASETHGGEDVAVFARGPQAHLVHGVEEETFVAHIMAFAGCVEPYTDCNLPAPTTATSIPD
Method in brief: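 Compounds at 2 μM final were incubated 60 min at 37° C in 0.1 M Tris-HCl pH 7.8 with 1 mM MgCl2 and 1 mM ZnCl2, with or without 100 ng/mL iALP (0.01 units/mL). Samples were quenched with acetonitrile/formic acid containing labetalol. Conversion was quantified by LC-MS peak area ratios against a 2 μM product standard.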

Solubility in FaSSIF = details: 23 °C, pH 6.5, fassif, thermodynamic from solid
Method in brief: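 Concentration measured by HPLC-UV after solid compound was dosed at 5 mg/mL into pH 6.5 fasted-state simulated intestinal fluid containing taurocholate and lecithin (4:1 molar) and vortexed.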

[2] = Intestinal S9 Assay (dog GI S9); format: in vitro ADME; details: 1.0 mg/mL S9 protein; for half-life at 2 μM: dog, TRIS pH 7.4, read-out: Dog GI S9 T½
Method in brief: (§1)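 Pooled dog or human intestinal S9 at 1.0 mg/mL protein in TRIS buffer pH 7.4 with ZnCl2 and MgCl2; compound at 2 μM, sampled 0–120 min and quenched. Remaining parent by LC-MS peak area ratio; half-life from first-order exponential decline fit.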

[3] = Intestinal S9 Assay (human GI S9); format: in vitro ADME; details: 1.0 mg/mL S9 protein; for half-life at 2 μM: human, TRIS pH 7.4, read-out: Human GI S9 T½
Method in brief: as §1

PBS Stability Assay = format: physicochemical; details: buffer, pH 7.4, 2 μM, phosphate buffered saline pH 7.4; read-out: PBS T½
Method in brief: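 Test compound at 2 μM final was incubated in PBS, pH 7.4, and sampled at 0, 10, 20, 30, 60 and 120 min into acetonitrile/1% formic acid quench with labetalol internal standard. Remaining compound was quantified by LC-MS peak-area ratio, and half-life came from a first-order exponential fit.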

Compound	EC50 (HIV-1 IIIB strain) [nM]	[Compound] [1] [nM]	solubility at 2 h (Solubility in FaSSIF) [µg/mL]	half-life at 2 μM [2] [h]	half-life at 2 μM [3] [h]	half-life at 2 μM (PBS Stability Assay) [h]	biALP Intermediate A or [Amprenavir] (% of total) [1]	[Intermediate A] or [Amprenavir] ([1]; parent formed) [nM]	Dog GI S9 [Intermediate A] ([2]; 2 μM, TRIS pH 7.4) [nM]	Dog GI S9 [Intermediate A] % ([2]; 2 μM, TRIS pH 7.4) [%]	Human GI S9 [Intermediate A] ([3]; 2 μM, TRIS pH 7.4) [nM]	Human GI S9 [Intermediate A] % ([3]; 2 μM, TRIS pH 7.4) [%]
COC(=O)N[C@H](C(=O)N[C@@H](Cc1ccc(C#Cc2cnc(N3CC4CCC(C3)N4C3COC3)nc2)cc1)[C@H](CN(Cc1c(F)cc(-c2ccn(C(F)F)n2)cc1F)NC(=O)[C@@H](NC(=O)OC)C(C)(C)C(F)(F)F)OC(=O)CC(C)(C)c1c(CC(=O)NCc2ccc(C#N)cc2)cc(C)cc1OP(=O)(O)O)C(C)(C)C(F)(F)F [Example 51, (5S,10S,11S,14S)-8-(4-(1-(difluoromethyl)-1H-pyrazol-3-yl)-2,6-difluorobenzyl)-11-(4-((2-(8-(oxetan-3-yl)-3,8-diazabicyclo[3.2.1]octan-3-yl)pyrimidin-5-yl)ethynyl)benzyl)-3,6,13,16-tetraoxo-5,14-bis(1,1,1-trifluoro-2-methylpropan-2-yl)-2,17-dioxa-4,7,8,12,15-pentaazaoctadecan-10-yl 3-(2-(2-((4-cyanobenzyl)amino)-2-oxoethyl)-4-methyl-6-(phosphonooxy)phenyl)-3-methylbutanoate]	636	2331.5	< 1000	8.29	7.98	6.71						
COC(=O)N[C@H](C(=O)N[C@@H](Cc1ccc(C#Cc2cnc(N3CC4CCC(C3)N4C3COC3)nc2)cc1)[C@H](CN(Cc1c(F)cc(-c2ccn(C(F)F)n2)cc1F)NC(=O)[C@@H](NC(=O)OC)C(C)(C)C(F)(F)F)OC(=O)CC(C)(C)c1c(CC(=O)Nc2ccc(/C=C/C(=O)O)cc2)cc(C)cc1OP(=O)(O)O)C(C)(C)C(F)(F)F [Example 52]	67.2	2131.6	< 1000	2.59	5.07	5.92						
COC(=O)N[C@H](C(=O)N[C@@H](Cc1ccc(C#Cc2cnc(N3CC4CCC(C3)N4C3COC3)nc2)cc1)[C@H](CN(Cc1c(F)cc(-c2ccn(C(F)F)n2)cc1F)NC(=O)[C@@H](NC(=O)OC)C(C)(C)C(F)(F)F)OC(=O)CC(C)(C)c1c(CC(=O)NCc2cccc(C(=O)O)c2)cc(C)cc1OP(=O)(O)O)C(C)(C)C(F)(F)F [Example 53]	113	2028.9	< 1000	2.41	3.4	9.76						
COC(=O)N[C@H](C(=O)N[C@@H](Cc1ccc(C#Cc2cnc(N3CC4CCC(C3)N4C3COC3)nc2)cc1)[C@H](CN(Cc1c(F)cc(-c2ccn(C(F)F)n2)cc1F)NC(=O)[C@@H](NC(=O)OC)C(C)(C)C(F)(F)F)OC(=O)CC(C)(C)c1c(CC(=O)N[C@@H](CCC(=O)O)C(=O)O)cc(C)cc1OP(=O)(O)O)C(C)(C)C(F)(F)F [Example 66]	164	1908	3890 (≈ 2410 µM)	0.912	3.19	4.86	9.4 % of total	197.1	965.9	68.6	367.6	26
COC(=O)N[C@H](C(=O)N[C@@H](Cc1ccc(C#Cc2cnc(N3CC4CCC(C3)N4C3COC3)nc2)cc1)[C@H](CN(Cc1c(F)cc(-c2ccn(C(F)F)n2)cc1F)NC(=O)[C@@H](NC(=O)OC)C(C)(C)C(F)(F)F)OC(=O)CC(C)(C)c1c(CC(=O)NCC(=O)O)cc(C)cc1OP(=O)(O)O)C(C)(C)C(F)(F)F [Example 74]	194	2044.2	3340 (≈ 2160 µM)	1.03	3.93	11.5						
COC(=O)N[C@H](C(=O)N[C@@H](Cc1ccc(C#Cc2cnc(N3CC4CCC(C3)N4C3COC3)nc2)cc1)[C@H](CN(Cc1c(F)cc(-c2ccn(C(F)F)n2)cc1F)NC(=O)[C@@H](NC(=O)OC)C(C)(C)C(F)(F)F)OC(=O)CC(C)(C)c1c(CC(=O)N2CC[C@H](C(=O)O)C2)cc(C)cc1OP(=O)(O)O)C(C)(C)C(F)(F)F [Example 76]	333	1777	2230 (≈ 1410 µM)	4.41	6.16	4.89						

Reference: patent US20250051375A1, “ANTI-HIV COMPOUNDS” (Gilead Sciences, Inc., priority 2023, published 2025)
